Converted amounts (≈) assume the structure as drawn. Where two headings read alike, the source gives them in different places. Where a SMILES comes first, the peptide text is derived from it. The star is where a group is joined. Deoxycholoyl = C[C@H](CCC(=O)*)[C@H]1CC[C@H]2[C@@H]3CC[C@@H]4C[C@H](O)CC[C@]4(C)[C@H]3C[C@H](O)[C@]12C; Benzoyl(4-Ph) = O=C(c1ccc(-c2ccccc2)cc1)*; Hydrocinnamoyl = O=C(CCc1ccccc1)*; Octanoyl = CCCCCCCC(=O)*; X4 = O=C(/C=C/c1ccccc1)*; X2 = O=C(C#Cc1ccccc1)*; Butyryl = CCCC(=O)*
Key:
[1] = test system: Enterococcus faecium ATCC 700221; type: cell-based; conditions: ATCC 700221, 18 h
Description: (§1) Tests of the antibacterial activity were carried out as we just described. Briefly, for assays, the following strains of ESKAPE bacteria were chosen: Acinetobacter baumannii ATCC BAA-1605, Enterococcus faecium ATCC 700221, Klebsiella aerogenes ATCC 13048 (formerly Enterobacter aerogenes), Klebsiella pneumoniae ATCC 700603, and Pseudomonas aeruginosa ATCC 9027. Moreover, the reference strains of Staphylococcus aureus were used: S. aureus ATCC 25923, S. aureus ATCC 6538, S. aureus ATCC 33591 (MRSA), S. aureus ATCC 9144, and S. aureus ATCC 12598. Before experiments, all the strains were stored at −80 °C in Roti®-Store cryo vials (Carl Roth GmbH, Karlsruhe, Germany). To evaluate the activity of the compounds, bacteria were transferred into fresh Mueller–Hinton medium (Becton Dickinson, Warszawa, Poland) and incubated for 24 h at 37 °C. In the next step, bacterial inoculums were seeded on Mueller–Hinton agar plates (BioMaxima SA, Lublin, Poland) and incubated again for 24 h. The MIC values were determined using the broth microdilution method according to the Clinical and Laboratory Standards Institute Protocol. The initial inoculums of bacteria (0.5 × 10^5 colony forming units (CFU)/mL) prepared in Mueller–Hinton broth were exposed to the ranging concentrations of peptides (1–512 µg/mL). The experiments were conducted on 96-well microtiter plates, with a final volume of 100 µL. The inoculum densities were checked spectrophotometrically (Multiskan™ GO Microplate Spectrophotometer, Thermo Scientific, Waltham, MA, USA) at 600 nm. The results were read after incubation for 18 h at 37 °C. The MIC values were the lowest concentration at which a visible growth of microorganisms was inhibited. All experiments were conducted in triplicate. Moreover, positive (growth) and negative (sterility) controls were included.

[2] = test system: Klebsiella aerogenes ATCC 13048; type: cell-based; conditions: ATCC 13048, 18 h
Description: as §1

[3] = test system: Klebsiella pneumoniae ATCC 700603; type: cell-based; conditions: ATCC 700603, 18 h
Description: as §1

[4] = test system: Pseudomonas aeruginosa ATCC 9027; type: cell-based; conditions: ATCC 9027, 18 h
Description: as §1

S. aureus ATCC 12598 = type: cell-based, Staphylococcus aureus; conditions: ATCC 12598, 18 h
Description: as §1

S. aureus ATCC 25923 = type: cell-based, Staphylococcus aureus; conditions: ATCC 25923, 18 h
Description: as §1

[5] = test system: S. aureus ATCC 33591 (MRSA); type: cell-based, Staphylococcus aureus; conditions: ATCC 33591, 18 h
Description: as §1

S. aureus ATCC 6538 = type: cell-based, Staphylococcus aureus; conditions: ATCC 6538, 18 h
Description: as §1

S. aureus ATCC 9144 = type: cell-based, Staphylococcus aureus; conditions: ATCC 9144, 18 h
Description: as §1

[6] = test system: human red blood cells (hRBCs); assay: Hemolysis assay; conditions: for MHC5 (minimum hemolytic concentration causing 5% hemolysis of hRBCs): 4% (v/v) erythrocytes in PBS, peptides 1–512 µg/mL, 1 h at 37 °C, hemoglobin at 540 nm
Description: To facilitate a comparison of hemolytic activity between the analogs, MHC5 values were determined. MHC5 is the minimum hemolytic concentration of the compounds that caused the 5% hemolysis of hRBCs.
Briefly, the fresh hRBCs with EDTA as anticoagulant were rinsed three times with PBS through centrifugation at 800× g for 10 min and resuspended in PBS. The serial dilution of peptides (1–512 µg/mL) was prepared in PBS on 96-well plates. Then, the stock RBCs solution was added to the plates to reach a final volume of 100 µL with a 4% concentration of erythrocytes (v/v). The control wells for 0 (RBCs in PBS) and 100% (RBCs in 1% Triton-X 100) hemolysis were also prepared. Then, the plates were incubated for 1 h at 37 °C and centrifuged at 800× g for 10 min at 4 °C (Sorvall ST 16R Centrifuge, Thermo Scientific, Waltham, MA, USA). After centrifugation, the supernatant was carefully transferred to new microtiter plates and the release of hemoglobin was measured at 540 nm (Multiskan™ GO Microplate Spectrophotometer, Thermo Scientific, Waltham, MA, USA). The percentage of hemolysis was calculated based on wells with 100% hemolysis.

[7] = fresh batch of blood (footnote a)
[8] = 100% = 1% Triton-X 100, ≥ means less than 5% hemolysis up to 512 µg/mL

Row | SMILES | MIC E. faecium [1] [µg/mL] | MIC K. aerogenes [2] [µg/mL] | MIC K. pneumoniae [3] [µg/mL] | MIC P. aeruginosa [4] [µg/mL] | MIC S. aureus 12598 (S. aureus ATCC 12598) [µg/mL] | MIC S. aureus 25923 (S. aureus ATCC 25923) [µg/mL] | MIC S. aureus 33591 [5] [µg/mL] | MIC S. aureus 6538 (S. aureus ATCC 6538) [µg/mL] | MIC S. aureus 9144 (S. aureus ATCC 9144) [µg/mL] | MIC A. baumannii (18 h) [µg/mL] | MIC A. baumannii (Mueller–Hinton broth, 0.5 × 10^5 CFU/mL, peptides 1–512 µg/mL, 18 h at 37 °C, triplicate) [µg/mL] | MHC5 (minimum hemolytic concentration causing 5% hemolysis of hRBCs) [6, 7] | Hemolytic effect over the studied concentration range ([6]; hRBCs, concentration range up to 512 µg/mL, significant = >5% hemolysis) | MHC5 (minimum hemolytic concentration causing 5% hemolysis of hRBCs) [6, 8] [µg/mL]
1 | CC[C@H](C)[C@H](NC(=O)[C@H](CCCNC(=N)N)NC(=O)[C@H](CCC(N)=O)NC(=O)[C@@H](NC(=O)[C@@H](NC(=O)[C@H](CCCNC(=N)N)NC(=O)[C@H](CCCCN)NC(=O)CC[C@@H](C)[C@H]1CC[C@H]2[C@@H]3CC[C@@H]4C[C@H](O)CC[C@]4(C)[C@H]3C[C@H](O)[C@]12C)[C@@H](C)CC)C(C)C)C(=O)N[C@@H](CCCCN)C(=O)N[C@@H](CC(=O)O)C(=O)N[C@@H](Cc1ccccc1)C(=O)N[C@@H](CC(C)C)C(=O)N[C@@H](CCCNC(=N)N)C(N)=O [XXII, Deoxycholic acid-KR12-NH2] (Deoxycholoyl-KRIVQRIKDFLR-NH2) | 2 (≈ 1.03 µM) | 128 (≈ 65.8 µM) | 64 (≈ 32.9 µM) | 128 (≈ 65.8 µM) | 8 (≈ 4.11 µM) | 32 (≈ 16.4 µM) | 256 (≈ 132 µM) | 4 (≈ 2.06 µM) | 8 (≈ 4.11 µM) |  | 8 (≈ 4.11 µM) | 8 µg/mL |  | 
2 | CCCC(=O)NCCCC[C@H](NC(=O)CCC)C(=O)N[C@@H](CCCNC(=N)N)C(=O)N[C@H](C(=O)N[C@H](C(=O)N[C@@H](CCC(N)=O)C(=O)N[C@@H](CCCNC(=N)N)C(=O)N[C@H](C(=O)N[C@@H](CCCCN)C(=O)N[C@@H](CC(=O)O)C(=O)N[C@@H](Cc1ccccc1)C(=O)N[C@@H](CC(C)C)C(=O)N[C@@H](CCCNC(=N)N)C(N)=O)[C@@H](C)CC)C(C)C)[C@@H](C)CC [X, C4^α, C4^ε-KR12-NH2] (Butyryl-K(Butyryl)RIVQRIKDFLR-NH2) | 32 (≈ 18.7 µM) | 256 (≈ 150 µM) | 512 (≈ 299 µM) | >512 | 512 (≈ 299 µM) | 128 (≈ 74.8 µM) | 512 (≈ 299 µM) | 32 (≈ 18.7 µM) | 256 (≈ 150 µM) | 128 (≈ 74.8 µM) |  |  | did not induce any significant hemolysis (>5%) | 
3 | CC[C@H](C)[C@H](NC(=O)[C@H](CCCNC(=N)N)NC(=O)[C@H](CCC(N)=O)NC(=O)[C@@H](NC(=O)[C@@H](NC(=O)[C@H](CCCNC(=N)N)NC(=O)[C@H](CCCCN)NC(=O)/C=C/c1ccccc1)[C@@H](C)CC)C(C)C)C(=O)N[C@@H](CCCCN)C(=O)N[C@@H](CC(=O)O)C(=O)N[C@@H](Cc1ccccc1)C(=O)N[C@@H](CC(C)C)C(=O)N[C@@H](CCCNC(=N)N)C(N)=O [XIX, trans-cinnamic acid-KR12-NH2] (X4-KRIVQRIKDFLR-NH2) | 4 (≈ 2.35 µM) | 16 (≈ 9.41 µM) | 16 (≈ 9.41 µM) | 32 (≈ 18.8 µM) | 16 (≈ 9.41 µM) | 16 (≈ 9.41 µM) | 8 (≈ 4.7 µM) | 16 (≈ 9.41 µM) | 4 (≈ 2.35 µM) | 8 (≈ 4.7 µM) |  | 128 ^a µg/mL |  | 
4 | CCCCCCCC(=O)N[C@@H](CCCCN)C(=O)N[C@@H](CCCCN)C(=O)N[C@@H](CCCNC(=N)N)C(=O)N[C@H](C(=O)N[C@H](C(=O)N[C@@H](CCC(N)=O)C(=O)N[C@@H](CCCNC(=N)N)C(=O)N[C@H](C(=O)N[C@@H](CCCCN)C(=O)N[C@@H](CC(=O)O)C(=O)N[C@@H](Cc1ccccc1)C(=O)N[C@@H](CC(C)C)C(=O)N[C@@H](CCCNC(=N)N)C(N)=O)[C@@H](C)CC)C(C)C)[C@@H](C)CC [IV, C8^α-Lys-KR12-NH2] (Octanoyl-KKRIVQRIKDFLR-NH2) | 4 (≈ 2.19 µM) | 32 (≈ 17.5 µM) | 16 (≈ 8.77 µM) | 32 (≈ 17.5 µM) | 32 (≈ 17.5 µM) | 128 (≈ 70.1 µM) | 64 (≈ 35.1 µM) | 8 (≈ 4.38 µM) | 16 (≈ 8.77 µM) | 8 (≈ 4.38 µM) |  |  |  | 256

Continued, in another order:

Row | MIC E. faecium [1] [µg/mL] | MIC K. aerogenes [2] [µg/mL] | MIC K. pneumoniae [3] [µg/mL] | MIC P. aeruginosa [4] [µg/mL] | MIC S. aureus 12598 (S. aureus ATCC 12598) [µg/mL] | MIC S. aureus 25923 (S. aureus ATCC 25923) [µg/mL] | MIC S. aureus 33591 [5] [µg/mL] | MIC S. aureus 6538 (S. aureus ATCC 6538) [µg/mL] | MIC S. aureus 9144 (S. aureus ATCC 9144) [µg/mL] | MIC A. baumannii (18 h) [µg/mL] | SMILES | MIC A. baumannii (Mueller–Hinton broth, 0.5 × 10^5 CFU/mL, peptides 1–512 µg/mL, 18 h at 37 °C, triplicate) [µg/mL] | MHC5 (minimum hemolytic concentration causing 5% hemolysis of hRBCs) [6, 7] | Hemolytic effect over the studied concentration range ([6]; hRBCs, concentration range up to 512 µg/mL, significant = >5% hemolysis) | MHC5 (minimum hemolytic concentration causing 5% hemolysis of hRBCs) [6, 8] [µg/mL]
5 | 2 (≈ 1.14 µM) | 4 (≈ 2.28 µM) | 8 (≈ 4.57 µM) | 16 (≈ 9.14 µM) | 4 (≈ 2.28 µM) | 8 (≈ 4.57 µM) | 4 (≈ 2.28 µM) | 2 (≈ 1.14 µM) | 4 (≈ 2.28 µM) | 8 (≈ 4.57 µM) | CC[C@H](C)[C@H](NC(=O)[C@H](CCCNC(=N)N)NC(=O)[C@H](CCC(N)=O)NC(=O)[C@@H](NC(=O)[C@@H](NC(=O)[C@H](CCCNC(=N)N)NC(=O)[C@H](CCCCN)NC(=O)c1ccc(-c2ccccc2)cc1)[C@@H](C)CC)C(C)C)C(=O)N[C@@H](CCCCN)C(=O)N[C@@H](CC(=O)O)C(=O)N[C@@H](Cc1ccccc1)C(=O)N[C@@H](CC(C)C)C(=O)N[C@@H](CCCNC(=N)N)C(N)=O [XXI, 4-Phenylbenzoic acid-KR12-NH2] ({Benzoyl(4-Ph)}-KRIVQRIKDFLR-NH2) |  |  |  | 32
6 | 4 (≈ 2.35 µM) | 64 (≈ 37.6 µM) | 32 (≈ 18.8 µM) | 64 (≈ 37.6 µM) | 16 (≈ 9.39 µM) | 16 (≈ 9.39 µM) | 32 (≈ 18.8 µM) | 8 (≈ 4.7 µM) | 16 (≈ 9.39 µM) | 32 (≈ 18.8 µM) | CC[C@H](C)[C@H](NC(=O)[C@H](CCCNC(=N)N)NC(=O)[C@H](CCC(N)=O)NC(=O)[C@@H](NC(=O)[C@@H](NC(=O)[C@H](CCCNC(=N)N)NC(=O)[C@H](CCCCN)NC(=O)CCc1ccccc1)[C@@H](C)CC)C(C)C)C(=O)N[C@@H](CCCCN)C(=O)N[C@@H](CC(=O)O)C(=O)N[C@@H](Cc1ccccc1)C(=O)N[C@@H](CC(C)C)C(=O)N[C@@H](CCCNC(=N)N)C(N)=O [XVII, 3-Phenylpropionic acid-KR12-NH2] (Hydrocinnamoyl-KRIVQRIKDFLR-NH2) |  |  |  | 256
7 | 4 (≈ 2.35 µM) | 16 (≈ 9.42 µM) | 32 (≈ 18.8 µM) | 64 (≈ 37.7 µM) | 32 (≈ 18.8 µM) | 128 (≈ 75.3 µM) | 32 (≈ 18.8 µM) | 8 (≈ 4.71 µM) | 16 (≈ 9.42 µM) | 32 (≈ 18.8 µM) | CC[C@H](C)[C@H](NC(=O)[C@H](CCCNC(=N)N)NC(=O)[C@H](CCC(N)=O)NC(=O)[C@@H](NC(=O)[C@@H](NC(=O)[C@H](CCCNC(=N)N)NC(=O)[C@H](CCCCN)NC(=O)C#Cc1ccccc1)[C@@H](C)CC)C(C)C)C(=O)N[C@@H](CCCCN)C(=O)N[C@@H](CC(=O)O)C(=O)N[C@@H](Cc1ccccc1)C(=O)N[C@@H](CC(C)C)C(=O)N[C@@H](CCCNC(=N)N)C(N)=O [XX, Phenylpropiolic acid-KR12-NH2] (X2-KRIVQRIKDFLR-NH2) |  |  |  | 256
